Laboratory results reported in patent US20230085307A1, “PYRIDAZINONE COMPOUND AND HERBICIDE” (NISSAN CHEMICAL CORPORATION, priority 2019, published 2023).

What was measured:
[1] = system: late watergrass; assay: Test Example 1: herbicidal activity, application before weed generation under submerged conditions (Table 16, symbol A); format: in vivo, late watergrass (Echinochloa oryzicola); details: amount of applied herbicide 320 g/ha
In short: (§1)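 Alluvial soil was flooded to 4 cm depth, weed seeds were sown mixed and 2.5-leaf rice seedlings were transplanted. On sowing day, the compound's emulsion, diluted in water to a set dose, was applied to the water surface. Plants grew at 25–30 °C and were scored 0–5 after three weeks.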

[2] = system: Japanese bulrush; assay: Test Example 1: herbicidal activity, application before weed generation under submerged conditions (Table 16, symbol B); format: in vivo, Japanese bulrush (Schoenoplectus juncoides); details: amount of applied herbicide 320 g/ha
In short: as §1

[3] = system: oval-leafed pondweed; assay: Test Example 1: herbicidal activity, application before weed generation under submerged conditions (Table 16, symbol C); format: in vivo, oval-leafed pondweed (Monochoria vaginalis); details: amount of applied herbicide 320 g/ha
In short: as §1

[4] = system: barnyard grass; assay: Test Example 3: herbicidal effect by foliage application, Wagner pot (Table 18, symbol H); format: in vivo, barnyard grass (Echinochloa crus-galli); details: amount of applied herbicide 320 g/ha
In short: (§2)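 Plants were sown in alluvial soil held under 0.1–0.5 cm standing water and grown 14 days in a greenhouse at 25–30 °C. An emulsifiable formulation, water-diluted to the set dose, was then sprayed onto the foliage, and effects were scored three weeks later using previously defined criteria.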

[5] = system: Chinese sprangletop; assay: Test Example 3: herbicidal effect by foliage application, Wagner pot (Table 18, symbol D); format: in vivo, chinese sprangletop (Leptochloa chinensis); details: amount of applied herbicide 320 g/ha
In short: as §2

[6] = system: rice flat sedge; assay: Test Example 3: herbicidal effect by foliage application, Wagner pot (Table 18, symbol E); format: in vivo, rice flat sedge (Cyperus iria); details: amount of applied herbicide 320 g/ha
In short: as §2

[7] = system: southern crabgrass; assay: Test Example 4: herbicidal effect by soil treatment (Table 19, symbol F); format: in vivo, southern crabgrass (Digitaria ciliaris); details: amount of applied herbicide 320 g/ha
In short: (§3)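 Seeds were sown in sterilized diluvial soil and covered with about 1.5 cm of soil. An emulsion formulation diluted with water to a predetermined herbicide amount was sprayed evenly onto the soil surface. Plants grew in a greenhouse at 25° C. to 30° C., and the effect was scored three weeks after application using criteria from an earlier test.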

[8] = system: green foxtail; assay: Test Example 4: herbicidal effect by soil treatment (Table 19, symbol G); format: in vivo, green foxtail (Setaria viridis); details: amount of applied herbicide 320 g/ha
In short: as §3

[9] = system: barnyard grass; assay: Test Example 4: herbicidal effect by soil treatment (Table 19, symbol H); format: in vivo, barnyard grass (Echinochloa crus-galli); details: amount of applied herbicide 320 g/ha
In short: as §3

[10] = system: wild oat; assay: Test Example 4: herbicidal effect by soil treatment (Table 19, symbol I); format: in vivo, wild oat (Avena fatua); details: amount of applied herbicide 320 g/ha
In short: as §3

[11] = system: Italian ryegrass; assay: Test Example 4: herbicidal effect by soil treatment (Table 19, symbol K); format: in vivo, Italian ryegrass (Lolium multiflorum); details: amount of applied herbicide 320 g/ha
In short: as §3

[12] = system: windgrass; assay: Test Example 4: herbicidal effect by soil treatment (Table 19, symbol L); format: in vivo, windgrass (Apera spica-venti); details: amount of applied herbicide 320 g/ha
In short: as §3

[13] = system: velvetleaf; assay: Test Example 4: herbicidal effect by soil treatment (Table 19, symbol M); format: in vivo, velvetleaf (Abutilon theophrasti); details: amount of applied herbicide 320 g/ha
In short: as §3

[14] = system: redroot pigweed; assay: Test Example 4: herbicidal effect by soil treatment (Table 19, symbol N); format: in vivo, redroot pigweed (Amaranthus retroflexus); details: amount of applied herbicide 320 g/ha
In short: as §3

[15] = system: lambsquarters; assay: Test Example 4: herbicidal effect by soil treatment (Table 19, symbol O); format: in vivo, lambsquarters (Chenopodium album); details: amount of applied herbicide 320 g/ha
In short: as §3

[16] = system: chickweed; assay: Test Example 4: herbicidal effect by soil treatment (Table 19, symbol P); format: in vivo, common chickweed (Stellaria media); details: amount of applied herbicide 320 g/ha
In short: as §3

[17] = system: persian speedwell; assay: Test Example 4: herbicidal effect by soil treatment (Table 19, symbol R); format: in vivo, Persian speedwell (Veronica persica); details: amount of applied herbicide 320 g/ha
In short: as §3

[18] = system: southern crabgrass; assay: Test Example 5: herbicidal effect by foliage application, plastic box (Table 20, symbol F); format: in vivo, southern crabgrass (Digitaria ciliaris); details: foliage application, 320 g/ha, three weeks after application
In short: (§4)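 Plants sown in sterilized diluvial soil and grown 14 days in a greenhouse at 25° C to 30° C, then sprayed on the foliage with the compound's emulsion diluted in water to a predetermined herbicide amount. Injury to weeds and crops scored three weeks after application on a visual rating scale.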

[19] = system: green foxtail; assay: Test Example 5: herbicidal effect by foliage application, plastic box (Table 20, symbol G); format: in vivo, green foxtail (Setaria viridis); details: foliage application, 320 g/ha, three weeks after application
In short: as §4

[20] = system: barnyard grass; assay: Test Example 5: herbicidal effect by foliage application, plastic box (Table 20, symbol H); format: in vivo, barnyard grass (Echinochloa crus-galli); details: foliage application, 320 g/ha, three weeks after application
In short: as §4

[21] = system: wild oat; assay: Test Example 5: herbicidal effect by foliage application, plastic box (Table 20, symbol I); format: in vivo, wild oat (Avena fatua); details: foliage application, 320 g/ha, three weeks after application
In short: as §4

[22] = system: blackgrass; assay: Test Example 5: herbicidal effect by foliage application, plastic box (Table 20, symbol J); format: in vivo, blackgrass (Alopecurus myosuroides); details: foliage application, 320 g/ha, three weeks after application
In short: as §4

[23] = system: Italian ryegrass; assay: Test Example 5: herbicidal effect by foliage application, plastic box (Table 20, symbol K); format: in vivo, Italian ryegrass (Lolium multiflorum); details: foliage application, 320 g/ha, three weeks after application
In short: as §4

[24] = system: windgrass; assay: Test Example 5: herbicidal effect by foliage application, plastic box (Table 20, symbol L); format: in vivo, windgrass (Apera spica-venti); details: foliage application, 320 g/ha, three weeks after application
In short: as §4

[25] = system: velvetleaf; assay: Test Example 5: herbicidal effect by foliage application, plastic box (Table 20, symbol M); format: in vivo, velvetleaf (Abutilon theophrasti); details: foliage application, 320 g/ha, three weeks after application
In short: as §4

[26] = system: redroot pigweed; assay: Test Example 5: herbicidal effect by foliage application, plastic box (Table 20, symbol N); format: in vivo, redroot pigweed (Amaranthus retroflexus); details: foliage application, 320 g/ha, three weeks after application
In short: as §4

[27] = system: lambsquarters; assay: Test Example 5: herbicidal effect by foliage application, plastic box (Table 20, symbol O); format: in vivo, lambsquarters (Chenopodium album); details: foliage application, 320 g/ha, three weeks after application
In short: as §4

[28] = system: chickweed; assay: Test Example 5: herbicidal effect by foliage application, plastic box (Table 20, symbol P); format: in vivo, common chickweed (Stellaria media); details: foliage application, 320 g/ha, three weeks after application
In short: as §4

[29] = system: persian speedwell; assay: Test Example 5: herbicidal effect by foliage application, plastic box (Table 20, symbol R); format: in vivo, Persian speedwell (Veronica persica); details: foliage application, 320 g/ha, three weeks after application
In short: as §4

Cc1nn(C)c(=O)c(-c2c(-c3ccc(N(C)C)cc3)sc3ccc(F)cc23)c1O [2-425]
Herbicidal effect, A: late watergrass [1]: 3 (Herbicidal rate of 40% or more and less than 70%) | Herbicidal effect, B: Japanese bulrush [2]: 3 (Herbicidal rate of 40% or more and less than 70%) | Herbicidal effect, C: oval-leafed pondweed [3]: 0 (Herbicidal rate of 5% or less (almost no effect)) | herbicidal effect on H: barnyard grass [4]: 4 (Herbicidal rate of 70% or more and less than 90%) | herbicidal effect on D: Chinese sprangletop [5]: 2 (Herbicidal rate of 20% or more and less than 40%) | herbicidal effect on E: rice flat sedge [6]: 5 (Herbicidal rate of 90% or more (almost completely withered)) | herbicidal effect, F: southern crabgrass [7]: 0 (Herbicidal rate of 5% or less (almost no effect)) | herbicidal effect, G: green foxtail [8]: 0 (Herbicidal rate of 5% or less (almost no effect)) | herbicidal effect, H: barnyard grass [9]: 0 (Herbicidal rate of 5% or less (almost no effect)) | herbicidal effect, I: wild oat [10]: 0 (Herbicidal rate of 5% or less (almost no effect)) | herbicidal effect, K: Italian ryegrass [11]: 2 (Herbicidal rate of 20% or more and less than 40%) | herbicidal effect, L: windgrass [12]: 0 (Herbicidal rate of 5% or less (almost no effect)) | herbicidal effect, M: velvetleaf [13]: 0 (Herbicidal rate of 5% or less (almost no effect)) | herbicidal effect, N: redroot pigweed [14]: 5 (Herbicidal rate of 90% or more (almost completely withered)) | herbicidal effect, O: lambsquarters [15]: 4 (Herbicidal rate of 70% or more and less than 90%) | herbicidal effect, P: chickweed [16]: 3 (Herbicidal rate of 40% or more and less than 70%) | herbicidal effect, R: persian speedwell [17]: 5 (Herbicidal rate of 90% or more (almost completely withered)) | F: southern crabgrass, herbicidal effect grade [18]: 5 (Herbicidal rate of 90% or more (almost completely withered)) | G: green foxtail, herbicidal effect grade [19]: 5 (Herbicidal rate of 90% or more (almost completely withered)) | H: barnyard grass, herbicidal effect grade [20]: 4 (Herbicidal rate of 70% or more and less than 90%) | I: wild oat, herbicidal effect grade [21]: 4 (Herbicidal rate of 70% or more and less than 90%) | J: blackgrass, herbicidal effect grade [22]: 4 (Herbicidal rate of 70% or more and less than 90%) | K: Italian ryegrass, herbicidal effect grade [23]: 4 (Herbicidal rate of 70% or more and less than 90%) | L: windgrass, herbicidal effect grade [24]: 5 (Herbicidal rate of 90% or more (almost completely withered)) | M: velvetleaf, herbicidal effect grade [25]: 5 (Herbicidal rate of 90% or more (almost completely withered)) | N: redroot pigweed, herbicidal effect grade [26]: 5 (Herbicidal rate of 90% or more (almost completely withered)) | O: lambsquarters, herbicidal effect grade [27]: 5 (Herbicidal rate of 90% or more (almost completely withered)) | P: chickweed, herbicidal effect grade [28]: 5 (Herbicidal rate of 90% or more (almost completely withered)) | R: persian speedwell, herbicidal effect grade [29]: 5 (Herbicidal rate of 90% or more (almost completely withered))
